Drawing on ChEMBL document CHEMBL1158994, “Methylpendolmycin, an indolactam from a Nocardiopsis sp” (J Nat Prod, 1991), this text covers Ki and IC50 for 2 compounds.

Values after ≈ are worked out from the molar mass of the structure shown.

This experiment concerns the target Protein kinase C (PKC). Kind of experiment: Displacement of radiolabeled PDBU from PKC in rat forebrain. The experiment is classed as tissue-based.

As usually defined, the Ki is the equilibrium dissociation constant of an inhibitor or competing ligand from its target. In turn, `CCCCCCCCCCCCCC(=O)O[C@@H]1[C@@H](C)[C@@]2(O)[C@@H](C=C(CO)C[C@]3(OC)C(=O)C(C)=C[C@@H]23)[C@@H]2C(C)(C)[C@]12OC(C)=O` came in with a Ki of 0.5 µM.

What is called IC50 is the concentration at which inhibition is half-maximal. Regarding `C=CC(C)(C)c1ccc2c3c(c[nH]c13)C[C@@H](CO)NC(=O)[C@H]([C@@H](C)CC)N2C` [METHYLPENDOLMYCIN], the IC50 came to 0.0135 µg/mL (≈ 0.0352 µM).
